Test results from patent publication US6858591B2, “Antibiotic AA 896 analogs” (Wyeth Holdings Corporation, priority 2001, dated 2005).
In brackets after ≈: the same amount, converted by molar mass. Like-named read-outs stand apart in the source and are kept apart here.

What was measured:
Test in all cases: In vitro MIC, broth dilution
Type in all cases: cell-based
E. coli GC 4559 = conditions: Escherichia coli, GC4559
E. coli GC 4560 = conditions: Escherichia coli, GC4560
E. coli GC 3226 = conditions: Escherichia coli, GC3226
S. marcescens GC 4077 = conditions: Serratia marcescens, GC4077
C. albicans GC 3066 = conditions: Candida albicans, GC3066
M. morganii GC 4531 = conditions: Morganella morganii, GC4531
K. pneumoniae GC 4534 = conditions: Klebsiella pneumoniae, GC4534
E. cloacae GC 3783 = conditions: Enterobacter cloacae, GC3783
P. aeruginosa GC 4532 = conditions: Pseudomonas aeruginosa, GC4532
CNS GC 4537 = tested on: CNS GC 4537
How it was run: (§1)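 Susceptibility testing used the NCCLS broth dilution method. Antibiotic spanned 64-0.06 μg/ml against an inoculum of 5×10^5 CFU/ml in Mueller-Hinton II; after 18 hours at 35° C the lowest concentration without growth gave the MIC.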

CNS GC 4538 = tested on: CNS GC 4538
How it was run: as §1

CNS GC 4547 = tested on: CNS GC 4547
How it was run: as §1

E. faecalis GC 2242 = conditions: Enterococcus faecalis, GC2242
How it was run: as §1

E. faecalis GC 4555 = conditions: Enterococcus faecalis, GC4555
How it was run: as §1

E. faecalis GC 842 = conditions: Enterococcus faecalis, GC842
How it was run: as §1

S. aureus GC 1131 = conditions: Staphylococcus aureus, GC1131
How it was run: as §1

S. aureus GC 2216 = conditions: Staphylococcus aureus, GC2216
How it was run: as §1

S. aureus GC 4536 = conditions: Staphylococcus aureus, GC4536
How it was run: as §1

E. coli GC 2203 = conditions: Escherichia coli, GC2203
P. aeruginosa GC 2214 = conditions: Pseudomonas aeruginosa, GC2214
[1] = S. marcescens GC 4077, read-out: MIC
[2] = C. albicans GC 3066, read-out: MIC
[3] = M. morganii GC 4531, read-out: MIC
[4] = K. pneumoniae GC 4534, read-out: MIC
[5] = E. cloacae GC 3783, read-out: MIC
[6] = P. aeruginosa GC 4532, read-out: MIC
[7] = E. faecalis GC 2242, read-out: MIC
[8] = E. faecalis GC 4555, read-out: MIC
[9] = E. faecalis GC 842, read-out: MIC
[10] = S. aureus GC 1131, read-out: MIC
[11] = S. aureus GC 2216, read-out: MIC
[12] = S. aureus GC 4536, read-out: MIC
[13] = P. aeruginosa GC 2214, read-out: MIC

Structure (SMILES)	MIC (E. coli GC 4559; E. coli GC 4559, read-out: MIC) [µg/mL]	MIC (E. coli GC 4560; E. coli GC 4560, read-out: MIC) [µg/mL]	MIC (E. coli GC 3226; E. coli GC 3226, read-out: MIC) [µg/mL]	MIC (S. marcescens GC 4077; [1]) [µg/mL]	MIC (C. albicans GC 3066; [2]) [µg/mL]	MIC (M. morganii GC 4531; [3]) [µg/mL]	MIC (K. pneumoniae GC 4534; [4]) [µg/mL]	MIC (E. cloacae GC 3783; [5]) [µg/mL]	MIC (P. aeruginosa GC 4532; [6]) [µg/mL]	MIC (CNS GC 4537; CNS GC 4537, read-out: MIC) [µg/mL]	MIC (CNS GC 4538; CNS GC 4538, read-out: MIC) [µg/mL]	MIC (CNS GC 4547; CNS GC 4547, read-out: MIC) [µg/mL]	MIC (E. faecalis GC 2242; [7]) [µg/mL]	MIC (E. faecalis GC 4555; [8]) [µg/mL]	MIC (E. faecalis GC 842; [9]) [µg/mL]	MIC (S. aureus GC 1131; [10]) [µg/mL]	MIC (S. aureus GC 2216; [11]) [µg/mL]	MIC (S. aureus GC 4536; [12]) [µg/mL]	MIC (E. coli GC 2203; E. coli GC 2203, read-out: MIC) [µg/mL]	MIC (P. aeruginosa GC 2214; [13]) [µg/mL]	also measured
COc1ccc(Cn2c(=O)ccn([C@@H]3OC([C@H](O)[C@H](NCCCNC(=O)C(NC(=O)[C@H](CCCNC(=N)N[N+](=O)[O-])NC(=O)N[C@H](C(=O)OCc4ccccc4)C(C)C)[C@@H](C)O)C(=O)OC(C)(C)C)[C@@H](O[Si](C)(C)C(C)(C)C)[C@H]3O[Si](C)(C)C(C)(C)C)c2=O)cc1 (stereo partly drawn) [Example 30, 1-Benzyl 17-(tert-butyl)(2S,6S,9S,16S)-16-[(R)-[(3R,4R,5R)-3,4-bis{[tert-butyl(dimethyl)silyl]oxy}-5-(3-(4-methoxybenzyl)-2,4-dioxo-3,4-dihydro-1(2H)-pyrimidinyl)tetrahydro-2-furanyl](hydroxy)methyl]-6-(3-{[(2,2-dioxido-2lambda˜1˜-diazanyl)(imino)methyl]amino}propyl)-9-[(1S)-1-hydroxyethyl]-2-isopropyl-4,7,10-trioxo-3,5,8,11,15-pentaazaheptadecane-1,17-dioate]	–	–	–	–	–	–	–	–	–	–	–	–	–	–	–	–	–	–	–	–	MIC (E. coli GC 4559): > 128 µg/mL; MIC (E. coli GC 4560): 64 µg/mL (≈ 48.7 µM); MIC (E. coli GC 3226): > 128 µg/mL; MIC (S. marcescens GC 4077): 128 µg/mL (≈ 97.4 µM); MIC (C. albicans GC 3066): 64 µg/mL (≈ 48.7 µM); MIC (M. morganii GC 4531): 128 µg/mL (≈ 97.4 µM); MIC (K. pneumoniae GC 4534): 128 µg/mL (≈ 97.4 µM); MIC (E. cloacae GC 3783): 128 µg/mL (≈ 97.4 µM); MIC (P. aeruginosa GC 4532): 64 µg/mL (≈ 48.7 µM); MIC (CNS GC 4537): 128 µg/mL (≈ 97.4 µM); MIC (CNS GC 4538): 128 µg/mL (≈ 97.4 µM); MIC (CNS GC 4547): 128 µg/mL (≈ 97.4 µM); MIC (E. faecalis GC 2242): 64 µg/mL (≈ 48.7 µM); MIC (E. faecalis GC 4555): 64 µg/mL (≈ 48.7 µM); MIC (E. faecalis GC 842): 128 µg/mL (≈ 97.4 µM); MIC (S. aureus GC 1131): 128 µg/mL (≈ 97.4 µM); MIC (S. aureus GC 2216): 128 µg/mL (≈ 97.4 µM); MIC (S. aureus GC 4536): 128 µg/mL (≈ 97.4 µM); MIC (E. coli GC 2203): > 128 µg/mL; MIC (P. aeruginosa GC 2214): 64 µg/mL (≈ 48.7 µM)
CCOC(=O)C(NCCCNC(=O)[C@@H](NC(=O)OCc1ccccc1)C(C)O)C(O)[C@H]1O[C@H](n2ccc(=O)[nH]c2=O)[C@H](OC(C)=O)[C@@H]1OC(C)=O (stereo partly drawn) [Example 31a, Ethyl (5S)-12-[(R)-[(2R,3R,4R,5S)-3,4-bis(acetyloxy)-5-(2,4-dioxo-3,4-dihydro-1(2H)-pyrimidinyl)tetrahydro-2-furanyl](hydroxy)methyl]-5-[(1S)-1-hydroxyethyl]-3,6-dioxo-1-phenyl-2-oxa-4,7,11-triazatridecan-13-oate]	> 128	128 (≈ 177 µM)	128 (≈ 177 µM)	128 (≈ 177 µM)	128 (≈ 177 µM)	128 (≈ 177 µM)	128 (≈ 177 µM)	128 (≈ 177 µM)	128 (≈ 177 µM)	> 128	> 128	> 128	128 (≈ 177 µM)	128 (≈ 177 µM)	128 (≈ 177 µM)	> 128	> 128	> 128	128 (≈ 177 µM)	128 (≈ 177 µM)	–
CCOC(=O)C(NCCCNC(=O)[C@@H](N)[C@H](C)O)[C@@H](O)[C@H]1O[C@H](n2ccc(=O)[nH]c2=O)[C@H](OC(C)=O)[C@@H]1OC(C)=O (stereo partly drawn) [Example 32, Ethyl (3R)-2-[(3-{[(2S,3S)-2-amino-3-hydroxybutanoyl]amino}propyl)amino]-3-[(2R,3R,4R,5S)-3,4-bis(acetyloxy)-5-(2,4-dioxo-3,4-dihydro-1(2H)-pyrimidinyl)tetrahydro-2-furanyl]-3-hydroxypropanoate]	> 128	> 128	> 128	> 128	> 128	> 128	> 128	> 128	> 128	> 128	> 128	> 128	> 128	> 128	> 128	> 128	> 128	> 128	> 128	> 128	–
CCOC(=O)C(NCCCNC(=O)[C@@H](N)[C@H](C)O)[C@@H](O)[C@H]1O[C@@H](n2ccc(=O)[nH]c2=O)[C@H](OC(C)=O)[C@@H]1OC(C)=O (stereo partly drawn) [Example 33, Ethyl (3R)-2-[(3-{[(2S,3S)-2-amino-3-hydroxybutanoyl]amino}propyl)amino]-3-[(2R,3R,4R,5R)-3,4-bis(acetyloxy)-5-(2,4-dioxo-3,4-dihydro-1(2H)-pyrimidinyl)tetrahydro-2-furanyl]-3-hydroxypropanoate]	> 128	> 128	> 128	> 128	> 128	> 128	> 128	> 128	> 128	> 128	> 128	> 128	> 128	> 128	> 128	> 128	> 128	> 128	> 128	> 128	–
CCOC(=O)C(NCCCNC(=O)[C@@H](NC(=O)[C@H](CCCNC(=N)N[N+](=O)O)NC(=O)N[C@H](C(=O)OCc1ccccc1)C(C)C)C(C)O)C(O)[C@H]1O[C@H](n2ccc(=O)[nH]c2=O)[C@H](OC(C)=O)[C@@H]1OC(C)=O (stereo partly drawn) [Example 34, 16-Benzyl 2-ethyl (1R,9S,12S,16S)-1-[(2R,3R,4R,5S)-3,4-bis(acetyloxy)-5-(2,4-dioxo-3,4-dihydro-1(2H)-pyrimidinyl)tetrahydro-2-furanyl]-12-(3-{[(2,2-dioxido-2lambda˜1˜-diazanyl)(imino)methyl]amino}propyl)-1-hydroxy-9-[(1S)-1-hydroxyethyl]-17-methyl-8,11,14-trioxo-3,7,10,13,15-pentaazaoctadecane-2,16-dicarboxylate]	> 128	> 128	> 128	> 128	128	> 128	> 128	> 128	128	–	–	–	128	> 128	> 128	> 128	> 128	> 128	> 128	128	MIC (CNS GC 4537): > 128 µg/mL; MIC (CNS GC 4538): > 128 µg/mL; MIC (CNS GC 4547): > 128 µg/mL
